Test results reported in patent US20070154464A1, “Methods for screening for agents capable of modulating t lymphocyte function in response to a herpes simplex virus-infected cell” (priority 2003, published 2007).
Where two headings read alike, the source gives them in different places.

What was measured:
CD8+ CTL clone SKH-13 = format: cell-based, human
HSV-inactivated T cells = format: cell-based, human
HSV-2 = test: Quantitative real-time PCR (TaqMan) of HSV levels in fibroblasts and CTL; format: cell-based
Experimental: Quantitative Real-Time PCR Using TaqMan® Chemistry: CTL were incubated with uninfected or HSV-infected fibroblasts for 4 h, removed by aspiration, and incubated for 5 h at 37° C. In the acyclovir group, fibroblasts were treated with 50 μM acyclovir for 2 h prior to infecting with HSV for 6 h. Removed CTL were then incubated with CD8-conjugated Dynabeads® (Dynal A.S., Oslo, Norway) for 30 m rocking at 4° C. and washed as directed by the manufacturer. DNA was purified from uninfected fibroblasts, HSV-infected fibroblasts, and CD8 enriched CTL using DNeasy® Tissue Kits (Qiagen, Valencia, Calif.). DNA was quantified by spectrophotometry and used as template in TaqMan® real-time PCR reactions with primers and fluorogenic probes specific for the HSV glycoprotein B gene or the cellular beta-globin gene. Reactions were carried out using an ABI 7700 Sequencer (Applied Biosystems, Foster City, Calif.), and the sequences and concentrations of the primers and probes used were as previously described (Liu et al., J. Virol. 75:11178, 2001).
The most sensitive technique available to detect the presence of HSV is real-time, quantitative PCR. Primers and probes against a viral gene (gB) and a cellular gene (beta globin) were used to determine the number of HSV copies per cell in HSV-infected fibroblasts and in inactivated CTL. […]

CTL [1] = test: Mitochondrial potential of CTL by MitoTracker Red CMXRos flow cytometry; format: cell-based, human; conditions: 1 μM, 4 h, CTL without fibroblasts
Experimental: Mitochondrial potential was assessed in untreated CTL, CTL treated with 1 μM staurosporine (Sigma, St. Louis, Mo.) for 4 h, CTL incubated with uninfected fibroblasts (control) for 4 h, and CTL incubated with HSV-infected fibroblasts (inactivated) for 4 h. CTL were then stained using MitoTracker® Red CMXRos as per the manufacturer's instructions (Molecular Probes, Inc., Eugene, Oreg.). Control and inactivated CTL were also stained with antibody against CD95/Fas (clone DX2, Dako, Carpinteria, Calif.) and with the DNA-binding dye 7-amino-actinomycin D (7-AAD, Sigma, St. Louis, Mo.) and analyzed by flow cytometry.

CTL [2] = test: Redirected cell lysis of 51Cr-labeled FcγR+ P815 target cells by anti-CD3-labeled CTL; format: cell-based, human; conditions: antibody 1 μg/ml for 15 m; control vs inactivated CTL; 5 h
T cells = format: cell-based, human

Molecule: C[C@@H]1C[C@@H]([C@H](O)CC2CC(=O)NC(=O)C2)C(=O)[C@@H](C)C1 [CHX, cyclohexamide]
- Effect on HSV-mediated inactivation of CTL (CD8+ CTL clone SKH-13; CTL (5 h prior) or targets exposed to 10 μg/ml): no effect on HSV-mediated inactivation
- Effect on HSV-mediated inactivation of CTL (CD8+ CTL clone SKH-13; fibroblasts treated with 10 μg/ml for 10 h prior to infection): abolished HSV-mediated inactivation

Molecule: IL-15: human recombinant IL-15 (Peprotech)
- Restoration of lytic function to HSV-inactivated T cells (HSV-inactivated T cells): not to restore lytic function

Molecule: Nc1nc2c(ncn2COCCO)c(=O)[nH]1 [acyclovir]
- # HSV Copies/cell (HSV-2; CTL incubated 4 h on HSV-2-infected fibroblasts treated with 50 μM acyclovir, CD8-bead enriched): 0.16 Copies/cell
- HSV copies detected per CTL (HSV-2; fibroblasts treated with 50 μM acyclovir prior to infection, inactivated CTL): 1 copy of HSV was detected per 6 CTL

Molecule: CN[C@@H]1C[C@H]2O[C@@](C)([C@@H]1OC)n1c3ccccc3c3c4c(c5c6ccccc6n2c5c31)C(=O)NC4 [staurosporine]
- CMXRos signal (mitochondrial membrane potential) in CTL (CTL [1]): significant decrease in the CMXRos signal

Molecule: C/C=C/[C@H]1O[C@@](O)([C@@H](C)[C@H](O)[C@H](C)[C@H]2OC(=O)/C(OC)=C/C(C)=C/[C@@H](C)[C@@H](O)[C@@H](CC)[C@@H](O)[C@H](C)C/C(C)=C/C=C/[C@@H]2OC)C[C@@H](O)[C@@H]1C [concanamycin]
- 51Cr release from target cells by SKH-13 CTL clone (CD8+ CTL clone SKH-13): prevented ^51Cr release from target cells

Molecule: OKT3: monoclonal antibody raised against CD3 (clone OKT3, Ortho-McNeil)
- Lytic granule release via redirected lysis (CTL [2]): Control but not inactivated CTL were capable of lytic granule release
- TNF-α and IFN-γ synthesis by inactivated T cells (T cells): failed to synthesize TNF-α and IFN-γ

B1: IL-7: human recombinant IL-7 (RnDSystems) (protein, UniProt P13232 26-177, looked up)
Interleukin-7: DCDIEGKDGKQYESVLMVSIDQLLDSMKEIGSNCLNNEFNFFKRHICDANKEGMFLFRAARKLRQFLKMNSTGDFDLHLLKVSEGTTILLNCTGQVKGRKPAALGEAQPTKSLEENKSLKEQKKLNDLCFLKRLLQEIKTCWNKILMGTKEH
- Restoration of lytic function to HSV-inactivated T cells (HSV-inactivated T cells): not to restore lytic function
